pIC50: −log10 of the molar value.
How the values were obtained:
[1] = target: B-Raf kinase (SEQ. ID NO: 2) (Homo sapiens (Human), UniProt P15056); test: Biochemical Assay for B-Raf (1); conditions: Table J, assay version (1); read-out: BRAF (1) IC50
Protocol: Biochemical Assay for B-Raf (1)
(§1) Activity of B-Raf kinase (SEQ. ID NO: 2) was determined spectroscopically using a coupled pyruvate kinase/lactate dehydrogenase assay that continuously monitors the ATP hydrolysis-dependent oxidation of NADH (e.g., Schindler et al., Science, 2000, 289, 1938-1942). Assays were conducted in 384-well plates (100 μL final volume) using 0.13 nM B-Raf (Sigma), 1.5 units pyruvate kinase, 2.1 units lactate dehydrogenase, 1 mM phosphoenol pyruvate, 0.28 mM NADH, 30.1 nM MEK (SignalChem), and 1 mM ATP in assay buffer (100 mM Tris, Ph 7.5, 15 mM MgCl2, 0.5 mM DTT, 0.1% octyl-glucoside, 0.002% (w/v) BSA, and 0.002% Triton X-100). Inhibition of B-Raf was measured by adding serial diluted test compound (final assay concentration of 1% DMSO). A decrease in absorption at 340 nm was monitored continuously for 6 h at 30° C. on a multi-mode microplate reader (BioTek). The reaction rate was calculated using the 4 to 5 h time frame. The reaction rate at each concentration of compound was converted to percent inhibition using controls (i.e., reaction with no test compound and reaction with a known inhibitor) and IC50 values were calculated by fitting a four-parameter sigmoidal curve to the data using Prism (GraphPad software).

[2] = target: B-Raf (V600E) (SEQ. ID NO: 4) kinase (Homo sapiens (Human), UniProt P15056, V600E); test: Biochemical Assay for B-Raf (V600E) (1); conditions: Table J, BRAF V600E, assay version (1); read-out: BRAF VE (1) IC50
Protocol: Biochemical Assay for B-Raf (V600E) (1)
Activity of B-Raf (V600E) (SEQ. ID NO: 4) kinase was determined spectroscopically using a coupled pyruvate kinase/lactate dehydrogenase assay that continuously monitors the ATP hydrolysis-dependent oxidation of NADH (e.g., Schindler et al., Science, 2000, 289, 1938-1942). Assays were conducted in 384-well plates (100 μL final volume) using 0.03 nM B-Raf (SignalChem), 1.5 units pyruvate kinase, 2.1 units lactate dehydrogenase, 1 mM phosphoenol pyruvate, 0.28 mM NADH, 30.1 nM MEK (SignalChem), and 1 mM ATP in assay buffer (100 mM Tris, Ph 7.5, 15 mM MgCl2, 0.5 mM DTT, 0.1% octyl-glucoside, 0.002% (w/v) BSA, and 0.002% Triton X-100). Inhibition of B-Raf (V600E) was measured by adding serial diluted test compound (final assay concentration of 1% DMSO). A decrease in absorption at 340 nm was monitored continuously for 6 h at 30° C. on a multi-mode microplate reader (BioTek). The reaction rate was calculated using the 3 to 4 h time frame. The reaction rate at each concentration of compound was converted to percent inhibition using controls (i.e., reaction with no test compound and reaction with a known inhibitor) and IC50 values were calculated by fitting a four-parameter sigmoidal curve to the data using Prism (GraphPad software).

[3] = target: A-Raf kinase (SEQ. ID No: 1) (Homo sapiens (Human), UniProt P10398, Y301D/Y302D); test: Biochemical Assay for A-Raf (1); conditions: Table J, assay version (1); read-out: ARAF (1) IC50
Protocol: Biochemical Assay for A-Raf (1)
as §1, with “A-Raf” for “B-Raf”, “No: 1)” for “NO: 2)”, “5.55” for “0.13”, “pH” for “Ph”

[4] = target: C-Raf kinase (SEQ. ID NO: 3) (Homo sapiens (Human), UniProt P04049, Y340D/Y341D); test: Biochemical Assay for C-Raf (1); conditions: Table J, assay version (1); read-out: CRAF (1) IC50
Protocol: Biochemical Assay for C-Raf (1)
as §1, with “of C-Raf” for “of B-Raf”, “NO: 3)” for “NO: 2)”, “using 0.43” for “using 0.13”, “nM C-Raf” for “nM B-Raf”

[5] = tested on: A375 cells; test: A375 Cell Proliferation Assay (1); assay type: cell-based; conditions: Homo sapiens, A-375
Protocol: A375 Cell Proliferation Assay (1)
A375 cells (catalog (#CRL-1619) are obtained from the American Type Culture Collect (ATTC, Manassas, VA). Briefly, cells were grown in DMEM High Glucose supplemented with 10% characterized fetal bovine serum (Invitrogen, Carlsbad, CA) and 1% Penicillin/Streptomycin/L-Glutamine at 37° C., 5% CO2, and 95% humidity. Cells are expanded until reaching 70-95% confluency at which point they are sub-cultured or harvested for assay use. A serial dilution of test compound is dispensed into a 96-well black clear bottom plate in triplicate. Two thousand five hundred cells are added per well in 200 μL complete growth medium in the 96-well plate. Plates are incubated for 67-72 h at 37° C., 5% CO2, and 95% humidity. At the end of the incubation, 40 μL of a 440 μM solution of resazurin (Sigma, St. Louis, MO) in PBS is added to each well of the plate and plates are incubated for an additional 5-6 h at 37° C., 5% CO2, and 95% humidity. Plates are read on a Synergy2 or equivalent reader (Biotek, Winooski VT) using an excitation of 540 nm and an emission of 600 nm. Data is analyzed using Prism software (GraphPad, San Diego, CA) to calculate IC50 values.

Chain of B-Raf kinase (SEQ. ID NO: 2) (P15056 416-766): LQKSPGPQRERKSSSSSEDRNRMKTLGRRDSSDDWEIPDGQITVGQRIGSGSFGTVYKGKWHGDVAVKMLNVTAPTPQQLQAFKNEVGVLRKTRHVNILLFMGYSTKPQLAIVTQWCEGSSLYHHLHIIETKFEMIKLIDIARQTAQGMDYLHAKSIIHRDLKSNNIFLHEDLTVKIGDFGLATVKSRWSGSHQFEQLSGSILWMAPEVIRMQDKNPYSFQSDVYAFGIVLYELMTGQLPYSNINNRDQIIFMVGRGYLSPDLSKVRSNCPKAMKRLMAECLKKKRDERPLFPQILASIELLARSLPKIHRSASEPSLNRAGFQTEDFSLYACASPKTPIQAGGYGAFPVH
Chain of B-Raf (V600E) (SEQ. ID NO: 4) kinase (P15056 416-766 V600E): as the sequence (P15056 416-766) above, with V185E counted along it
Chain of A-Raf kinase (SEQ. ID No: 1) (P10398 other isoform, or with tags, fused parts or gaps Y301D (already in the parent)/Y302D (already in the parent)): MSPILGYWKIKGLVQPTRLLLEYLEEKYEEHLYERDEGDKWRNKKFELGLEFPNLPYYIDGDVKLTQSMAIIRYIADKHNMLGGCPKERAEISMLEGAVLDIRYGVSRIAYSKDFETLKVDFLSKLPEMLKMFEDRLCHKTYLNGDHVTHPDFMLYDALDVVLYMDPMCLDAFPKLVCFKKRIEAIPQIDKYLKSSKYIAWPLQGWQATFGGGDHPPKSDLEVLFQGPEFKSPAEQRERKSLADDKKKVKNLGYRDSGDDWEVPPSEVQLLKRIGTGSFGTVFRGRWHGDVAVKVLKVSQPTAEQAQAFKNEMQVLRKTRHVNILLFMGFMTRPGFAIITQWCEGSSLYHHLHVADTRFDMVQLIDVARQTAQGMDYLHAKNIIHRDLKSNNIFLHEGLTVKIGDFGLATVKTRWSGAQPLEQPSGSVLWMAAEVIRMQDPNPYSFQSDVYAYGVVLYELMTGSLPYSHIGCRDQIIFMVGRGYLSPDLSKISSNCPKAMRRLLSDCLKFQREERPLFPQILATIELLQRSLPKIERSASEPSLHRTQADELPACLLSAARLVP
Chain of C-Raf kinase (SEQ. ID NO: 3) (P04049 307-648 Y340D/Y341D): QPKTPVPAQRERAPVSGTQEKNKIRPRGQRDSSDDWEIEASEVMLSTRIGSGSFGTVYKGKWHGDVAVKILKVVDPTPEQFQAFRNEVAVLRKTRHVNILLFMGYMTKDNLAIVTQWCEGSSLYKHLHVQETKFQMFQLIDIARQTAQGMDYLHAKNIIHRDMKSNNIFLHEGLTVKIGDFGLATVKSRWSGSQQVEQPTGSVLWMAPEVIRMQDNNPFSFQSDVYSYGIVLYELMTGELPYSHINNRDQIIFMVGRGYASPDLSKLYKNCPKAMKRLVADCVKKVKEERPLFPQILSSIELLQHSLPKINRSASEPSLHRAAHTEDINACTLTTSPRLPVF

Cc1ccc(NC(=O)c2ccnc(C(F)(F)F)c2)cc1-c1ccnc(-c2ccncc2)c1 [Example 44]
pIC50 [1]: ≥ 7.00
pIC50 [2]: ≥ 7.00
pIC50 [3]: 5.00 to 6.00
pIC50 [4]: ≥ 7.00
pIC50 [5]: 5.00 to 6.00

Cc1ccc(NC(=O)c2ccnc(C(F)(F)F)c2)cc1-c1ccnc(-c2cncnc2)c1 [Example 45]
pIC50 [1]: ≥ 7.00
pIC50 [2]: ≥ 7.00
pIC50 [3]: 5.00 to 6.00
pIC50 [4]: ≥ 7.00
pIC50 [5]: 5.00 to 6.00

CNC(=O)c1cc(-c2cc(-c3cc(NC(=O)c4ccnc(C(F)(F)F)c4)ccc3F)cc(C)n2)ccn1 [Example 66]
pIC50 [1]: 5.00 to 6.00
pIC50 [2]: ≥ 7.00
pIC50 [3]: 5.00 to 6.00
pIC50 [4]: ≥ 7.00
pIC50 [5]: 5.00 to 6.00

CNC(=O)c1cc(-c2cccc(-c3cc(NC(=O)c4cccc(C)c4)cnc3C)c2)ccn1 [Example 91]
pIC50 [1]: ≥ 7.00
pIC50 [2]: ≥ 7.00
pIC50 [3]: 5.00 to 6.00
pIC50 [4]: ≥ 7.00
pIC50 [5]: 5.00 to 6.00

Cc1ncc(NC(=O)c2ccnc(C(F)(F)F)c2)cc1-c1cccc(-c2ccnc(NC(=O)CN(C)C)c2)c1 [Example 95]
pIC50 [1]: ≥ 7.00
pIC50 [2]: ≥ 7.00
pIC50 [3]: 5.00 to 6.00
pIC50 [4]: ≥ 7.00
pIC50 [5]: 6.00 to 6.30

CC(=O)Nc1cc(-c2cc(-c3cc(NC(=O)c4ccnc(C(C)(C)C#N)c4)c(F)cc3C)cn(C)c2=O)ccn1 [Example 116]
pIC50 [1]: 6.30 to 7.00
pIC50 [2]: ≥ 7.00
pIC50 [3]: 5.00 to 6.00
pIC50 [4]: 6.30 to 7.00
pIC50 [5]: 6.30 to 7.00

Cc1ccc(NC(=O)c2ccnc(C(F)(F)F)c2)cc1-c1ccnc(-c2ccnc(NC(=O)CC#N)c2)n1 [Example 144]
pIC50 [1]: ≥ 7.00
pIC50 [2]: ≥ 7.00
pIC50 [3]: 6.30 to 7.00
pIC50 [4]: ≥ 7.00
pIC50 [5]: 6.00 to 6.30

Cc1ccc(NC(=O)c2cccc(C(C)(C)C#N)c2)cc1-c1cncc(-c2ccnc(C(=O)NC3CC3)c2)n1 [Example 149]
pIC50 [1]: 6.30 to 7.00
pIC50 [2]: ≥ 7.00
pIC50 [3]: 5.00 to 6.00
pIC50 [4]: 6.30 to 7.00
pIC50 [5]: 5.00 to 6.00

CC(=O)Nc1cc(-c2cc(-c3cc(NC(=O)c4ccnc(C(F)(F)F)c4)c(F)cc3C)cc(=O)n2C)ccn1 [Example 155]
pIC50 [1]: 6.30 to 7.00
pIC50 [2]: ≥ 7.00
pIC50 [3]: 5.00 to 6.00
pIC50 [4]: 6.30 to 7.00
pIC50 [5]: 5.00 to 6.00

CC(=O)Nc1cc(-c2nccc(-c3cc(NC(=O)c4ccnc(C(C)(C)C#N)c4)cnc3C)n2)ccn1 [Example 195]
pIC50 [1]: ≥ 7.00
pIC50 [2]: ≥ 7.00
pIC50 [3]: 5.00 to 6.00
pIC50 [4]: ≥ 7.00
pIC50 [5]: 6.30 to 7.00

COC(C)(C)c1cc(C(=O)Nc2ccc(C)c(-c3nccc(-c4ccnc(NC(=O)C5CC5)c4)n3)c2)ccn1 [Example 239]
pIC50 [1]: ≥ 7.00
pIC50 [2]: ≥ 7.00
pIC50 [3]: 6.00 to 6.30
pIC50 [4]: ≥ 7.00
pIC50 [5]: ≥ 7.00

Cc1ccc(NC(=O)c2ccnc(C(C)(C)C#N)c2)cc1-c1ccnc(-c2ccnc(NC(=O)C3(C)CC3)c2)n1 [Example 248]
pIC50 [1]: 6.30 to 7.00
pIC50 [2]: ≥ 7.00
pIC50 [3]: 5.00 to 6.00
pIC50 [4]: ≥ 7.00
pIC50 [5]: 6.30 to 7.00

Cc1cc(F)c(NC(=O)c2ccnc(C(F)F)c2)cc1-c1cncc(-c2ccnc(NC(=O)C3CC3)c2)n1 [Example 275]
pIC50 [1]: ≥ 7.00
pIC50 [2]: ≥ 7.00
pIC50 [3]: 6.00 to 6.30
pIC50 [4]: ≥ 7.00
pIC50 [5]: 5.00 to 6.00

Cc1ncc(NC(=O)c2ccnc(C(C)(C)C#N)c2)cc1-c1cccc(-c2ccnc(N)n2)c1 [Example 289]
pIC50 [1]: 6.30 to 7.00
pIC50 [2]: ≥ 7.00
pIC50 [3]: 5.00 to 6.00
pIC50 [4]: 6.30 to 7.00
pIC50 [5]: 5.00 to 6.00

Cc1ncc(NC(=O)c2ccnc(C3(C#N)CC3)c2)cc1-c1nccc(-c2ccnc(NC(=O)C3CC3)c2)n1 [Example 293]
pIC50 [1]: ≥ 7.00
pIC50 [2]: ≥ 7.00
pIC50 [3]: 5.00 to 6.00
pIC50 [4]: ≥ 7.00
pIC50 [5]: 6.30 to 7.00

CNC(=O)c1cc(-c2cnnc(-c3cc(NC(=O)c4cnn(C5CC5)c4)cnc3C)c2)ccn1 [Example 324]
pIC50 [1]: 5.00 to 6.00
pIC50 [2]: 5.00 to 6.00
pIC50 [3]: 5.00 to 6.00
pIC50 [4]: 5.00 to 6.00
pIC50 [5]: 5.00 to 6.00

Reference: US12319655B2, “RAF kinase inhibitors and methods of use thereof” (Deciphera Pharmaceuticals, LLC, priority 2021, dated 2025)
